From PubChem BioAssay AID1963967 (Molecular Pharmacology Branch, DTP, NCI, 2024)

System: 855422-203-R-J1-PDC spheroids with HUVEC/MSC, viability
Experiment: Anticancer human tumor 855422-203-R-J1-PDC patient-derived bladder carcinoma cell line growth inhibition [PI3K]
Conditions: for IC50: curve of first compound; for viability, T/C: stronger effect = lower value
Procedure, shortened: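 We assembled tumor spheroids that included a stromal compartment of HUVEC and MSCs, then exposed them to targeted agents alone and together with PI3K pathway inhibitors. Concentration series descended by half-log from clinically achievable Cmax levels. Viability served as the endpoint.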

[1] = second compound 0.0316 µM, first compound 0.0316 µM
[2] = second compound 0.0316 µM, first compound 0.1 µM
[3] = second compound 0.0316 µM, first compound 0.316 µM
[4] = second compound 0.0316 µM, first compound 1 µM
[5] = second compound 0.0316 µM, first compound 3.16 µM
[6] = second compound 0.0316 µM, first compound 10 µM
[7] = second compound 0.1 µM, first compound 0.0316 µM
[8] = second compound 0.1 µM, first compound 0.1 µM
[9] = second compound 0.1 µM, first compound 0.316 µM
[10] = second compound 0.1 µM, first compound 1 µM
[11] = second compound 0.1 µM, first compound 3.16 µM
[12] = second compound 0.1 µM, first compound 10 µM
[13] = second compound 0.316 µM, first compound 0.0316 µM
[14] = second compound 0.316 µM, first compound 0.1 µM
[15] = second compound 0.316 µM, first compound 0.316 µM
[16] = second compound 0.316 µM, first compound 1 µM
[17] = second compound 0.316 µM, first compound 3.16 µM
[18] = second compound 0.316 µM, first compound 10 µM
[19] = second compound 1 µM, first compound 0.0316 µM
[20] = second compound 1 µM, first compound 0.1 µM
[21] = second compound 1 µM, first compound 0.316 µM
[22] = second compound 1 µM, first compound 1 µM
[23] = second compound 1 µM, first compound 3.16 µM
[24] = second compound 1 µM, first compound 10 µM
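Note: agents incubated with spheroids for one week before read-out.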
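Throughout, for viability, T/C: 100% = DMSO vehicle-treated control wells.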

## CC1(C)CCC(Nc2ncc(C(F)(F)F)c(-c3c[nH]c4c(P(C)(C)=O)c(C#N)ccc34)n2)CN1 (centres undefined) + Cc1nc(NC(=O)N2CCCC2C(N)=O)sc1-c1ccnc(C(C)(C)C(F)(F)F)c1
Second compound 0.0316 µM
  IC50: < 31.6 nM
Second compound 0.1 µM
  IC50: < 31.6 nM
Second compound 0.316 µM
  IC50: < 31.6 nM
Second compound 1 µM
  IC50: < 31.6 nM
Second compound 3.16 µM
  IC50: < 31.6 nM
Second compound 10 µM
  IC50: < 31.6 nM
[1]
  viability, T/C: 27%
[2]
  viability, T/C: 25.1%
[3]
  viability, T/C: 25.5%
[4]
  viability, T/C: 29.4%
[5]
  viability, T/C: 26.9%
[6]
  viability, T/C: 7.04%
[7]
  viability, T/C: 26%
[8]
  viability, T/C: 23.9%
[9]
  viability, T/C: 25%
[10]
  viability, T/C: 26.7%
[11]
  viability, T/C: 28%
[12]
  viability, T/C: 7.41%
[13]
  viability, T/C: 22.5%
[14]
  viability, T/C: 23%
[15]
  viability, T/C: 25%
[16]
  viability, T/C: 22%
[17]
  viability, T/C: 18.5%
[18]
  viability, T/C: 5.22%
[19]
  viability, T/C: 20.2%
[20]
  viability, T/C: 20.2%
[21]
  viability, T/C: 18.7%
[22]
  viability, T/C: 19.6%
[23]
  viability, T/C: 17.5%
[24]
  viability, T/C: 2.99%
Second compound 3.16 µM, first compound 0.0316 µM
  viability, T/C: 16.3%
Second compound 3.16 µM, first compound 0.1 µM
  viability, T/C: 15.4%
Second compound 3.16 µM, first compound 0.316 µM
  viability, T/C: 13.3%
Second compound 3.16 µM, first compound 1 µM
  viability, T/C: 12.9%
Second compound 3.16 µM, first compound 3.16 µM
  viability, T/C: 10.8%
Second compound 3.16 µM, first compound 10 µM
  viability, T/C: 0.7%
Second compound 10 µM, first compound 0.0316 µM
  viability, T/C: 11.8%
Second compound 10 µM, first compound 0.1 µM
  viability, T/C: 10.2%
Second compound 10 µM, first compound 0.316 µM
  viability, T/C: 8.26%
Second compound 10 µM, first compound 1 µM
  viability, T/C: 8.63%
Second compound 10 µM, first compound 3.16 µM
  viability, T/C: 6.11%
Second compound 10 µM, first compound 10 µM
  viability, T/C: 0.26%

## CC1(C)CCC(Nc2ncc(C(F)(F)F)c(-c3c[nH]c4c(P(C)(C)=O)c(C#N)ccc34)n2)CN1 (centres undefined) + COc1c(OCCCN2CCOCC2)ccc2c3n(c(=NC(=O)c4cnc(N)nc4)nc12)CCN3
Second compound 0.00316 µM
  IC50: < 31.6 nM
Second compound 0.01 µM
  IC50: < 31.6 nM
Second compound 0.0316 µM
  IC50: < 31.6 nM
Second compound 0.1 µM
  IC50: < 31.6 nM
Second compound 0.316 µM
  IC50: < 31.6 nM
Second compound 1 µM
  IC50: < 31.6 nM
Second compound 0.00316 µM, first compound 0.0316 µM
  viability, T/C: 24.9%
Second compound 0.00316 µM, first compound 0.1 µM
  viability, T/C: 20.8%
Second compound 0.00316 µM, first compound 0.316 µM
  viability, T/C: 22.4%
Second compound 0.00316 µM, first compound 1 µM
  viability, T/C: 23.3%
Second compound 0.00316 µM, first compound 3.16 µM
  viability, T/C: 24.3%
Second compound 0.00316 µM, first compound 10 µM
  viability, T/C: 2.48%
Second compound 0.01 µM, first compound 0.0316 µM
  viability, T/C: 21.2%
Second compound 0.01 µM, first compound 0.1 µM
  viability, T/C: 18.6%
Second compound 0.01 µM, first compound 0.316 µM
  viability, T/C: 21.3%
Second compound 0.01 µM, first compound 1 µM
  viability, T/C: 19.8%
Second compound 0.01 µM, first compound 3.16 µM
  viability, T/C: 20.4%
Second compound 0.01 µM, first compound 10 µM
  viability, T/C: 3.49%
[1]
  viability, T/C: 16.7%
[2]
  viability, T/C: 17.2%
[3]
  viability, T/C: 13.9%
[4]
  viability, T/C: 16.9%
[5]
  viability, T/C: 16.6%
[6]
  viability, T/C: 1.53%
[7]
  viability, T/C: 12.7%
[8]
  viability, T/C: 10.7%
[9]
  viability, T/C: 12.4%
[10]
  viability, T/C: 10.1%
[11]
  viability, T/C: 8.84%
[12]
  viability, T/C: 1.32%
[13]
  viability, T/C: 5.48%
[14]
  viability, T/C: 4.79%
[15]
  viability, T/C: 5.47%
[16]
  viability, T/C: 6.03%
[17]
  viability, T/C: 3.06%
[18]
  viability, T/C: 1.28%
[19]
  viability, T/C: 1.83%
[20]
  viability, T/C: 2.45%
[21]
  viability, T/C: 2.02%
[22]
  viability, T/C: 2.08%
[23]
  viability, T/C: 1.22%
[24]
  viability, T/C: 1.25%
